Where only a bound is given, the exact number is not on record here.

The EC50 is the midpoint of the concentration-response curve. A high value points to a less potent agent.

For one assay, the target named is Human GPR35 (Homo sapiens, UniProt Q9HC97, S294R). Nature of the assay: Alternative Beta-Arrestin Assay (JumpIn 294R Tango U2OS cells, LiveBLAzer-FRET B/G). Type of assay: cell-based. Particulars: Human GPR35 expressing JumpIn 294R Tango U2OS cells, 5 hours treatment. The essentials: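 Beta-arrestin recruitment measured as FRET ratio change using CCF4-AM loading for 2 h, following 5-hour compound treatment of GPR35 (S294R) JumpIn Tango U2OS cells. Zaprinast served as positive control; EC50 values from four-parameter dose-response fits.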
Human GPR35, sequence (Q9HC97 whole entry S294R): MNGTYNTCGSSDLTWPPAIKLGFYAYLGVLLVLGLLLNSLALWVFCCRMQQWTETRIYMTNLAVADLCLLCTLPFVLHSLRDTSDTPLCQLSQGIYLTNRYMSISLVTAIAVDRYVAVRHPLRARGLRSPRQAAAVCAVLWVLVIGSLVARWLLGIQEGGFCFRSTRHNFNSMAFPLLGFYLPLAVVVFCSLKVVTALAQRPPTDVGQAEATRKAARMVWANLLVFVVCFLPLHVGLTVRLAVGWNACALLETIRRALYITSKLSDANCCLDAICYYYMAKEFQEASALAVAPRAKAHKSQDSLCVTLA
With `O=C(O)c1ccc(-c2ccc(-c3nc4[nH]nnc4c(=O)[nH]3)cc2NC2CCCCC2)cc1` [Compound 289, 2′-(cyclohexylamino)-4′-(7-oxo-6,7-dihydro-3H-[1,2,3]triazolo[4,5-d]pyrimidin-5-yl)-[1,1′-biphenyl]-4-carboxylic acid], the EC50 is at most 10 µM.

In turn, `CCOc1cc(-c2cccc(O[C@@H](CC)C(=O)O)c2)ccc1-c1nc2[nH]nnc2c(=O)[nH]1` (single isomer, unassigned) [Compound 254] came in with an EC50 of at most 10 µM.

For `CCOc1cc(-c2ccc(OC(C)C)c(CC(C)C(=O)O)c2)ccc1-c1nc2[nH]nnc2c(=O)[nH]1` (single isomer, unassigned) [Compound 313, 3-(3′-ethoxy-4-isopropoxy-4′-(7-oxo-6,7-dihydro-3H-[1,2,3]triazolo[4,5-d]pyrimidin-5-yl)-[1,1′-biphenyl]-3-yl)-2-methylpropanoic acid], the EC50 was at most 10 µM.

On to `CCOc1cc(-c2cc(F)c(F)c(O[C@@H](C)C(=O)O)c2)ccc1-c1nc2[nH]nnc2c(=O)[nH]1` (single isomer, unassigned) [Compound 261], for which the concentration for a half-maximal effect (EC50) is at most 10 µM.

Compound `CCOc1cc(-c2cccc(C[C@H](OC)C(=O)O)c2)ccc1-c1nc2[nH]nnc2c(=O)[nH]1` [Compound 283, (S)-3-(3′-ethoxy-4′-(7-oxo-6,7-dihydro-3H-[1,2,3]triazolo[4,5-d]pyrimidin-5-yl)-[1,1′-biphenyl]-3-yl)-2-methoxypropanoic acid] registered an EC50 of at most 10 µM.

`CCOc1cc(-c2cccc(C[C@@H](OC)C(=O)O)c2)ccc1-c1nc2[nH]nnc2c(=O)[nH]1` [Compound 285, (R)-3-(3′-ethoxy-4′-(7-oxo-6,7-dihydro-3H-[1,2,3]triazolo[4,5-d]pyrimidin-5-yl)-[1,1′-biphenyl]-3-yl)-2-methoxypropanoic acid] showed an EC50 of at most 10 µM.

On to `CCOc1cc(-c2ccc(OC)c(CC(C)C(=O)O)c2)ccc1-c1nc2[nH]nnc2c(=O)[nH]1` (centres unmarked) [Compound 316, 3-(3′-ethoxy-4-methoxy-4′-(7-oxo-6,7-dihydro-3H-[1,2,3]triazolo[4,5-d]pyrimidin-5-yl)-[1,1′-biphenyl]-3-yl)-2-methylpropanoic acid], for which the EC50 is at most 10 µM.

In the case of `CCOc1cc(-c2ccc(OC)c(/C=C(\C)C(=O)O)c2)ccc1-c1nc2[nH]nnc2c(=O)[nH]1` [Compound 315, (E)-3-(3′-ethoxy-4-methoxy-4′-(7-oxo-6,7-dihydro-3H-[1,2,3]triazolo[4,5-d]pyrimidin-5-yl)-[1,1′-biphenyl]-3-yl)-2-methylacrylic acid], the EC50 is at most 10 µM.

As for `CCOc1cc(-c2cccc(C(C)(C)C(=O)O)c2)ccc1-c1nc2[nH]nnc2c(=O)[nH]1` [Compound 298, 2-(3′-ethoxy-4′-(7-oxo-6,7-dihydro-3H-[1,2,3]triazolo[4,5-d]pyrimidin-5-yl)-[1,1′-biphenyl]-3-yl)-2-methylpropanoic acid], the EC50 is at most 10 µM.

`CCOc1cc(-c2cccc(CC(C)(C)C(=O)O)c2)ccc1-c1nc2[nH]nnc2c(=O)[nH]1` [Compound 243, 3-(3′-ethoxy-4′-(7-oxo-6,7-dihydro-3H-[1,2,3]triazolo[4,5-d]pyrimidin-5-yl)-[1,1′-biphenyl]-3-yl)-2,2-dimethylpropanoic acid] had an EC50 of at most 10 µM.

`CCOc1cc(-c2ccc(OCCN3CCCC3)c(CC(C)C(=O)O)c2)ccc1-c1nc2[nH]nnc2c(=O)[nH]1` (centres unmarked) [Compound 300, 3-(3′-ethoxy-4′-(7-oxo-6,7-dihydro-3H-[1,2,3]triazolo[4,5-d]pyrimidin-5-yl)-4-(2-(pyrrolidin-1-yl)ethoxy)-[1,1′-biphenyl]-3-yl)-2-methylpropanoic acid] came in with an EC50 of at most 10 µM.

`CCOc1cc(-c2cccc(CC(C)C(=O)O)c2)ccc1-c1nc2[nH]nnc2c(=O)[nH]1` (single isomer, unassigned) [Compound 311, 3-(3′-ethoxy-4′-(7-oxo-6,7-dihydro-3H-[1,2,3]triazolo[4,5-d]pyrimidin-5-yl)-[1,1′-biphenyl]-3-yl)-2-methylpropanoic acid]: the EC50 was at most 10 µM.

Take `O=C(O)c1cccc(-c2ccc(-c3nc4[nH]nnc4c(=O)[nH]3)c(OC3CCCC3)c2)c1O` [Compound 209, 3′-(Cyclopentyloxy)-2-hydroxy-4′-(7-oxo-6,7-dihydro-3H-[1,2,3]triazolo[4,5-d]pyrimidin-5-yl)-[1,1′-biphenyl]-3-carboxylic acid]: the EC50 is at most 10 µM.

Regarding `CCOc1cc(-c2ccc(C(=O)O)c(N)c2)ccc1-c1nc2[nH]nnc2c(=O)[nH]1` [Compound 204, 3-Amino-3′-ethoxy-4′-(7-oxo-6,7-dihydro-3H-[1,2,3]triazolo[4,5-d]pyrimidin-5-yl)-[1,1′-biphenyl]-4-carboxylic acid], the EC50 was at most 10 µM.

In turn, `CCOc1cc(-c2cccc(C(C)C(=O)O)c2)ccc1-c1nc2[nH]nnc2c(=O)[nH]1` (centres unmarked) [Compound 297, 2-(3′-ethoxy-4′-(7-oxo-6,7-dihydro-3H-[1,2,3]triazolo[4,5-d]pyrimidin-5-yl)-[1,1′-biphenyl]-3-yl)propanoic acid] came in with an EC50 of at most 10 µM.

In turn, `CCOc1cc(-c2cccc(C(=O)O)c2F)ccc1-c1nc2[nH]nnc2c(=O)[nH]1` [Compound 186, 3′-ethoxy-2-fluoro-4′-(7-oxo-6,7-dihydro-3H-[1,2,3]triazolo[4,5-d]pyrimidin-5-yl)-[1,1′-biphenyl]-3-carboxylic acid] showed an EC50 of at most 10 µM.

As to `CCOC(=O)c1ccc(-c2ccc(-c3nc4[nH]nnc4c(=O)[nH]3)c(OCC)c2)cc1` [Compound 191, ethyl 3′-ethoxy-4′-(7-oxo-6,7-dihydro-3H-[1,2,3]triazolo[4,5-d]pyrimidin-5-yl)-[1,1′-biphenyl]-4-carboxylate], the EC50 was at most 10 µM.

`CCOc1cc(-c2cccc(N)c2)ccc1-c1nc2[nH]nnc2c(=O)[nH]1` [Compound 197, 5-(3′-Amino-3-ethoxy-[1,1′-biphenyl]-4-yl)-3,6-dihydro-7H-[1,2,3]triazolo[4,5-d]pyrimidin-7-one] displayed an EC50 of at most 10 µM.

`CCOc1cc(-c2cc(OCC(=O)O)cc(C(=O)O)c2)ccc1-c1nc2[nH]nnc2c(=O)[nH]1` [Compound 219, 5-(Carboxymethoxy)-3′-ethoxy-4′-(7-oxo-6,7-dihydro-3H-[1,2,3]triazolo[4,5-d]pyrimidin-5-yl)-[1,1′-biphenyl]-3-carboxylic acid] displayed an EC50 of at most 10 µM.

Take `CN(C)CCCOc1cc(-c2ccc(C(=O)O)cc2)ccc1-c1nc2[nH]nnc2c(=O)[nH]1` [Compound 229, 3′-(3-(Dimethylamino)propoxy)-4′-(7-oxo-6,7-dihydro-3H-[1,2,3]triazolo[4,5-d]pyrimidin-5-yl)-[1,1′-biphenyl]-4-carboxylic acid]: the EC50 was in the range of 10 to 50 µM.

Compound `CCOc1cc(-c2cc(C(=O)O)cs2)ccc1-c1nc2[nH]nnc2c(=O)[nH]1` [Compound 190, 5-(3-ethoxy-4-(7-oxo-6,7-dihydro-3H-[1,2,3]triazolo[4,5-d]pyrimidin-5-yl)phenyl)thiophene-3-carboxylic acid] gave an EC50 of at most 10 µM.

On to `CCOc1cc(-c2cccc(CC(C)C(=O)O)c2)ccc1-c1nc2[nH]nnc2c(=O)[nH]1` (single isomer, unassigned) [Compound 312, 3-(3′-ethoxy-4′-(7-oxo-6,7-dihydro-3H-[1,2,3]triazolo[4,5-d]pyrimidin-5-yl)-[1,1′-biphenyl]-3-yl)-2-methylpropanoic acid], for which the EC50 is at most 10 µM.

In the case of `CCOc1cc(-c2cc(O)cc(OC(C)C(=O)O)c2)ccc1-c1nc2[nH]nnc2c(=O)[nH]1` (centres unmarked) [Compound 276, 2-((3′-ethoxy-5-hydroxy-4′-(7-oxo-6,7-dihydro-3H-[1,2,3]triazolo[4,5-d]pyrimidin-5-yl)-[1,1′-biphenyl]-3-yl)oxy)propanoic acid], the EC50 is at most 10 µM.

Regarding `CCOc1cc(-c2ccc(O)c(CCC(=O)O)c2)ccc1-c1nc2[nH]nnc2c(=O)[nH]1` [Compound 309, 3-(3′-ethoxy-4-hydroxy-4′-(7-oxo-6,7-dihydro-3H-[1,2,3]triazolo[4,5-d]pyrimidin-5-yl)-[1,1′-biphenyl]-3-yl)propanoic acid], the EC50 was at most 10 µM.

As for `CN(C)c1cc(-c2nc3[nH]nnc3c(=O)[nH]2)ccc1-c1ccc(C(=O)O)cc1` [Compound 288, 2′-(dimethylamino)-4′-(7-oxo-6,7-dihydro-3H-[1,2,3]triazolo[4,5-d]pyrimidin-5-yl)-[1,1′-biphenyl]-4-carboxylic acid], the concentration for a half-maximal effect (EC50) is at most 10 µM.

As for `CCOc1cc(-c2ccc(OC(C)C)c(/C=C(\C)C(=O)O)c2)ccc1-c1nc2[nH]nnc2c(=O)[nH]1` [Compound 301, (E)-3-(3′-ethoxy-4-isopropoxy-4′-(7-oxo-6,7-dihydro-3H-[1,2,3]triazolo[4,5-d]pyrimidin-5-yl)-[1,1′-biphenyl]-3-yl)-2-methylacrylic acid], the EC50 is at most 10 µM.

`CCOc1cc(-c2cccc(CC(CC)C(=O)O)c2)ccc1-c1nc2[nH]nnc2c(=O)[nH]1` (single isomer, unassigned) [Compound 241, 2-((3′-ethoxy-4′-(7-oxo-6,7-dihydro-3H-[1,2,3]triazolo[4,5-d]pyrimidin-5-yl)-[1,1′-biphenyl]-3-yl)methyl)butanoic acid]: the EC50 was at most 10 µM.

The compound `CCOc1cc(-c2cccc(OC(C(=O)O)c3ccccc3)c2)ccc1-c1nc2[nH]nnc2c(=O)[nH]1` (centres unmarked) [Compound 249, 2-((3′-ethoxy-4′-(7-oxo-6,7-dihydro-3H-[1,2,3]triazolo[4,5-d]pyrimidin-5-yl)-[1,1′-biphenyl]-3-yl)oxy)-2-phenylacetic acid] displayed an EC50 of at most 10 µM.

Still in this assay, the particulars now being: at 50 μM; Table 2.
For the compound `O=C(O)c1ccc(-c2ccc(-c3nc4[nH]nnc4c(=O)[nH]3)c(OCCN3CCCC3)c2)cc1` [Compound 227, 4′-(7-Oxo-6,7-dihydro-3H-[1,2,3]triazolo[4,5-d]pyrimidin-5-yl)-3′-(2-(pyrrolidin-1-yl)ethoxy)-[1,1′-biphenyl]-4-carboxylic acid], the “% inhibition at 50 μM” value was found to be 66% inhibition at.

The values are drawn from US11053251B2, “GPR35 modulators” (Prometheus Biosciences, Inc., priority 2019, dated 2021).
